Assay results taken from US10670605B2, “Cysteine reactive probes and uses thereof” (The Scripps Research Institute, priority 2015, dated 2020).
*: point of attachment. Cbz = O=C(OCc1ccccc1)*; CH2F = FC*

How the values were obtained:
active CASP8 [1] = molecular target: T1, active CASP8 (Homo sapiens, UniProt Q14790); test: CASP8 in vitro activity assay (substrate); assay type: biochemical; parameters: recombinant, purified active-CASP8 and active-CASP3 added to MDA-MB-231 cell lysates; His6 (C); made in house; host or cells: E. coli BL21(DE3)pLysS; conditions: fragments 100 μM; DEVD-CHO 20 μM
Method: Caspase 3 and 8 assays were conducted with CASP8 activity assay kit (BioVision, K112-100) and Caspase 3 activity assay kit (Invitrogen, EnzChek® Caspase-3 Assay Kit), following the manufacturer's instructions. Briefly, recombinant Caspase 3 (10 μM) was added to soluble Ramos lysates (1 mg/mL) to a 100 nM final concentration of protease. Caspase 8 (30 μM) was added to soluble Ramos lysates to a 1 μM final concentration of protease. In triplicate, 50 μL lysate was treated with either DMSO, DEVD-CHO (“DEVD” disclosed as SEQ ID NO: 857) (20 μM) or the indicated compounds (100 μM) for 1 h, following which 50 μL of 2× reaction buffer containing 10 mM DTT and 5 μL substrate (4 mM stock in DMSO of IETD-AFC (“IETD” disclosed as SEQ ID NO: 858) for CASP8; 10 mM stock in DMSO of DEVD-AMC (“DEVD” disclosed as SEQ ID NO: 857) for CASP3) was added to each well and the samples were incubated at ambient temperature for 2 h. Caspase activity was measured from the increase in fluorescence (excitation 380 nm emission 460 nm). Experiments were performed in triplicate. Background was calculated from samples lacking the recombinant caspase.

active CASP10 = molecular target: T2, active CASP10 (Homo sapiens, UniProt Q92851); test: Active CASP10 activity assay (AEVD-AMC substrate); assay type: biochemical; conditions: fragments 25 μM; DEVD-CHO 20 μM
T2 sequence (Q92851 220-415 limits assumed): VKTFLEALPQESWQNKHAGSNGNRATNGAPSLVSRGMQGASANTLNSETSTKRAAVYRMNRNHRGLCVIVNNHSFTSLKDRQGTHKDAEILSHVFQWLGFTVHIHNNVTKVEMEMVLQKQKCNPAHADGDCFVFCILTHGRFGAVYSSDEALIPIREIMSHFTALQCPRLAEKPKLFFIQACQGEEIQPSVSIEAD
T2 sequence (Q92851 416-521 limits assumed): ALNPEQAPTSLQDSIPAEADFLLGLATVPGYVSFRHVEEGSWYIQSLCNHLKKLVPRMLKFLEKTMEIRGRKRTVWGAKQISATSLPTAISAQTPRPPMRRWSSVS

active CASP8 [2] = molecular target: T1, active CASP8; test: Rho-DEVD-AOMK probe labeling of active CASP8; conditions: 7 50 μM; Ac-DEVD-CHO 20 μM
pro-CASP8 = molecular target: T3, pro-CASP8 (Homo sapiens, UniProt Q14790, D374A/D384A); test: Click probe 61 labeling of pro-CASP8 and its competition; assay type: binding; conditions: 300 nM protein in MDA-MB-231 lysate; read-out: apparent IC50 for blockade of 61 labeling of pro-CASP8
T3 construct: a truncated CASP8 (residues 217-479) without the CARD domain; His6 (C); made in house; host or cells: E. coli BL21(DE3)pLysS

CASP8 = molecular target: T4, CASP8 (Homo sapiens, UniProt Q14790); test: Quantitative proteomics (ABPP-SILAC) with probe 61 in cells; assay type: cell-based; conditions: primary human T cells and Jurkat cells
T4 construct: caspases measured by quantitative proteomics in Jurkat cells treated with 7, 63-R, or 62 followed by probe 61; endogenous in cells; host or cells: Jurkat cells (SILAC), treated in situ

Jurkat cells [3] = test: FasL-induced (extrinsic) apoptosis, CellTiter-Glo viability; assay type: cell-based, human
pro-CASP10 = pro-CASP10 (Homo sapiens, UniProt Q92851); test: Blockade of probe 61 labeling of pro-CASP10; assay type: binding; conditions: 300 nM protein in MDA-MB-231 lysate; read-out: apparent IC50 for blockade of 61 labeling of pro-CASP10
primary human T cells = test: FasL-induced apoptosis in activated primary T cells; assay type: cell-based; conditions: anti-CD3, anti-CD28-activated primary human T cells
Jurkat cells [4] = test: Staurosporine-induced (intrinsic) apoptosis, CellTiter-Glo viability; assay type: cell-based, human; conditions: 30 μM (VAD-FMK 100 μM), 30 min before STS, 6 h
Method: 4 mL of Jurkat cells in RPMI (1.5 million cells/mL) were treated with the indicated compound at 30 μM for 30 min (50 mM stock solution in DMSO). Z-VAD-FMK (EMD Millipore Biosciences, 627610) and was used at a final concentration of 100 μM. After pre-incubation, FASL (4 μL of […] stock solution of SuperFasLigandm in water, final concentration=100 ng/mL, Enzo life Sciences) or staurosporine (8 μL of 1 mM stock solution in DMSO, final concentration=2 μM, Fisher Scientific, 50664333). […] The gels were transferred to nitrocellulose membranes and were immunoblotted overnight with the indicated antibodies. For measurements of cell viability, in quadruplicate for each condition, 150,000 cells (100 μL of 1.5 million cells/mL) were plated in Nunc™ MicroWell™ 96-Well Optical-Bottom Plates with Polymer Base (Fisher Scientific). Compounds, FASL and STS were used at the same concentrations indicated above with a 30 minute pre-incubation with compound, followed by 6 hours with either STS or FASL or DMSO. Cell viability was measured with CellTiter-Glo® Luminescent Cell Viability Assay (Promega) and was read on a Biotech Synergy 4 plate reader.

T1 sequence (Q14790 217-374 limits assumed): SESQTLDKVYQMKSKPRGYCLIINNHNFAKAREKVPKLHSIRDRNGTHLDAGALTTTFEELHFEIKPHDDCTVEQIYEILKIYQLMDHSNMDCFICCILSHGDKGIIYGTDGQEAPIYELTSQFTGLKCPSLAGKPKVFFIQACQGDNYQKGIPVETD
T1 sequence (Q14790 385-479 limits assumed): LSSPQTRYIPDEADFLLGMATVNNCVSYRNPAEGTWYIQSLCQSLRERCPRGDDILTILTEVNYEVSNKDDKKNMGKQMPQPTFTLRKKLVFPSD
T3 sequence (Q14790 217-479 D374A/D384A): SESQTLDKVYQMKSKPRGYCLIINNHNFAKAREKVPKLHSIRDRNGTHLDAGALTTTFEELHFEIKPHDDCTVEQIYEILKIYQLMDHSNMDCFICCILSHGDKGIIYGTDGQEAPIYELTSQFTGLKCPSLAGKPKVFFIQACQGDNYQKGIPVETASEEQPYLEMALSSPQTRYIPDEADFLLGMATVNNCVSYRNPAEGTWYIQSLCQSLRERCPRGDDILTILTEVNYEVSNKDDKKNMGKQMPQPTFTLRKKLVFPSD
T4 sequence (Q14790 217-479): as the sequence (Q14790 217-479 D374A/D384A) above, with A158D, A168D counted along it
Chain of pro-CASP10 (Q92851 220-521): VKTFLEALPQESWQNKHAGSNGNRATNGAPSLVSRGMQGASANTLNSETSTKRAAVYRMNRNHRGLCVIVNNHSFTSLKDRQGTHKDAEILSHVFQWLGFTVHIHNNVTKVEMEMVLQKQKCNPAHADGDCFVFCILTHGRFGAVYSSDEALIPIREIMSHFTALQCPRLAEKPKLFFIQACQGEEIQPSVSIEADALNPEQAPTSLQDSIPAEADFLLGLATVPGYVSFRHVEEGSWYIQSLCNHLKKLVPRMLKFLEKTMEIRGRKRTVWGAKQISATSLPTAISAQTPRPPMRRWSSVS

## Ac-DEVD-CHO [reference compound]
Active CASP8 [1]
  CASP8 activity (substrate assay): blocked
Active CASP10
  activity of active CASP10 (substrate assay): inhibited
Active CASP8 [2]
  Rho-DEVD-AOMK labeling of active CASP8: blocked

## O=C(c1ccc(N2CCOCC2)cc1)N1CCC[C@@H](N(C(=O)CCl)c2ccccc2)C1 [63-R]
pro-CASP8
  IC50: 700 nM
CASP8
  blockade of CASP8 (chemical proteomics with probe 61): inhibited
Jurkat cells [3]; Jurkat cells, concentration series, 4 h
  FasL-induced apoptosis: fully blocked
pro-CASP10
  IC50: > 100000 nM
Primary human T cells
  FasL-induced apoptosis: substantial resistance

## Cbz-Val-Ala-Asp-CH2F [reference compound]
Jurkat cells [3]; 30 μM (VAD-FMK 100 μM), 30 min before FASL, 6 h
  FasL-induced apoptosis: prevented
Jurkat cells [4]
  STS-induced intrinsic apoptosis: prevented
